Measured values reported in the supplement of paper PMC10307832.

How the values were obtained:
Experiment in all cases: relative viability (nuclei count vs DMSO), 5 days (fraction); higher = more cells survive
[1] = compound: COC1=CC=C(C=C1)COC2=C(C=C(C=C2)CC3=CN=C(N=C3N)N)OC [GW-2580] + Nc1ncn([C@H]2C[C@H](O)[C@@H](CO)O2)c(=O)n1 [Decitabine] (partner 2 µM)
In short: (§1)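 For relative viability, nuclei counts in treated wells were divided by those in vehicle wells. Lung cancer cell lines had been pin-tool dosed in 1536-well plates the day after seeding and cultured for 5 days, then fixed and stained in one step (final 0.05% Triton X-100, 1% formaldehyde, 1 ug/ml Hoechst) and imaged at 4×. Doses were one drug alone or a fixed anchor-drug dose plus five library-drug doses (not always all listed) in √10 steps, and values are duplicate-plate medians.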

[2] = compound: COC1=CC=C(C=C1)COC2=C(C=C(C=C2)CC3=CN=C(N=C3N)N)OC [GW-2580] + CCNC(=O)c1noc(-c2cc(C(C)C)c(O)cc2O)c1-c1ccc(CN2CCOCC2)cc1 [Luminespib] (partner 0.01 µM)
In short: as §1

[3] = compound: COC1=CC=C(C=C1)COC2=C(C=C(C=C2)CC3=CN=C(N=C3N)N)OC [GW-2580] + COc1cc2c(Oc3ccc(NC(=O)C4(C(=O)Nc5ccc(F)cc5)CC4)cc3F)ccnc2cc1OCCCN1CCOCC1 [Foretinib] (partner 0.25 µM)
In short: as §1

[4] = compound: COC1=CC=C(C=C1)COC2=C(C=C(C=C2)CC3=CN=C(N=C3N)N)OC [GW-2580] + CS(=O)(=O)N1CCN(Cc2cc3nc(-c4cccc5[nH]ncc45)nc(N4CCOCC4)c3s2)CC1 [Pictilisib] (partner 1 µM)
In short: as §1

[5] = compound: Cc1cnc(Nc2ccc(OCCN3CCCC3)cc2)nc1Nc1cccc(S(=O)(=O)NC(C)(C)C)c1 [Fedratinib] + C[C@]1(O)C[C@@H](c2nc(-c3ccc4ccc(-c5ccccc5)nc4c3)c3c(N)nccn32)C1 [Linsitinib] (partner 1 µM)
In short: as §1

Cell Line | relative viability ([1]; first compound 0.08 µM) | relative viability ([1]; first compound 2.53 µM) | relative viability ([1]; first compound 8 µM) | relative viability ([2]; first compound 0.08 µM) | relative viability ([2]; first compound 0.8 µM) | relative viability ([2]; first compound 2.53 µM) | relative viability ([2]; first compound 8 µM) | relative viability ([3]; first compound 0.08 µM) | relative viability ([3]; first compound 0.8 µM) | relative viability ([3]; first compound 2.53 µM) | relative viability ([3]; first compound 8 µM) | relative viability ([4]; first compound 0.08 µM) | relative viability ([4]; first compound 0.8 µM) | relative viability ([4]; first compound 2.53 µM) | relative viability ([4]; first compound 8 µM) | relative viability ([1]; first compound 0.8 µM) | relative viability ([5]; first compound 0.1 µM) | relative viability ([5]; first compound 0.3162 µM) | relative viability ([5]; first compound 1 µM)
NCI-H1648 | 0.531 | 0.464 | 0.552 | – | – | – | – | – | – | – | – | – | – | – | – | – | – | – | –
SK-MES-1 | 0.361 | 0.309 | 0.422 | 0.869 | 0.989 | 0.701 | 0.83 | 1.03 | 0.934 | 0.962 | 0.915 | 0.34 | 0.381 | 0.355 | 0.324 | 0.399 | 1.08 | 1.11 | 1
HCC-366 | 0.328 | 0.352 | 0.449 | – | – | – | – | 1 | 0.879 | 0.964 | 0.791 | 0.148 | 0.199 | 0.141 | 0.137 | 0.375 | 0.55 | 0.663 | 0.663
201T | 0.895 | 0.873 | 0.887 | 1.04 | 1.04 | 1.08 | 0.988 | 1.09 | 1.1 | 1.24 | 1.13 | 0.601 | 0.701 | 0.67 | 0.68 | 0.914 | 1.03 | 1.02 | 0.974
HCC-827 | 0.275 | 0.299 | 0.319 | 0.92 | 0.762 | 0.508 | 0.56 | 1.13 | 1.02 | 1.02 | 0.905 | 1.01 | 1.01 | 0.949 | 0.963 | 0.317 | 0.964 | 1.01 | 0.948
NCI-H647 | 0.402 | 0.361 | 0.383 | 0.128 | 0.323 | 0.136 | 0.205 | 1.25 | 1.16 | 1.13 | 1.37 | 0.37 | 0.515 | – | 0.48 | 0.272 | 1.14 | 1.16 | 1.11
NCI-H2023 | 0.22 | 0.222 | 0.296 | 0.932 | 1.07 | 1.26 | 0.717 | 0.735 | 1.02 | 0.841 | 0.779 | 0.241 | 0.257 | 0.217 | 0.216 | 0.239 | 0.603 | 0.673 | 0.601
NCI-H520 | 0.501 | 0.524 | 0.545 | 0.224 | 0.202 | 0.196 | 0.274 | 0.804 | 0.627 | 0.783 | 0.762 | 0.35 | 0.287 | 0.279 | 0.332 | 0.489 | 1.09 | 1.25 | 1.02
RERF-LC-KJ | 0.687 | 0.673 | 0.658 | 1.23 | 1.56 | 1.35 | 1.14 | 0.896 | 0.911 | 0.842 | 0.765 | 0.553 | 0.404 | 0.478 | 0.515 | 0.799 | 0.805 | 0.906 | 0.855
A-427 | 0.541 | 0.531 | 0.618 | 1.1 | 0.83 | 0.927 | 0.798 | 1.1 | 1.14 | 0.892 | 1.01 | 0.73 | 0.661 | 0.678 | 0.655 | 0.555 | 1.13 | 1.05 | 1.11
NCI-H441 | 0.207 | 0.243 | 0.222 | 0.307 | 0.621 | 0.493 | 0.293 | 1.03 | 1.16 | 1.06 | 1.1 | 0.505 | 0.587 | 0.379 | 0.436 | 0.198 | 0.518 | 0.442 | 0.343
NCI-H1703 | – | – | – | – | – | – | – | 0.404 | 0.378 | 0.346 | 0.342 | 0.218 | 0.295 | 0.267 | 0.234 | – | – | 0.98 | 0.615
NCI-H1792 | 0.574 | 0.387 | 0.502 | 0.503 | 0.444 | 0.567 | 0.411 | – | – | – | – | 0.279 | 0.272 | 0.171 | 0.223 | 0.546 | 0.611 | 0.547 | 0.542
Calu-6 | – | – | – | – | – | – | – | 0.866 | 0.898 | 0.915 | 0.858 | 0.99 | 1.08 | 0.908 | 1.05 | – | 1.02 | 0.953 | 0.917
SK-LU-1 | 0.631 | 0.55 | 0.668 | 0.206 | 0.183 | 0.212 | 0.206 | 0.823 | 0.934 | 0.708 | 0.816 | 0.621 | 0.63 | 0.461 | 0.557 | 0.673 | – | 0.999 | 1.01
PC-3 [JPC-3] | 0.8 | 0.829 | 0.783 | 0.719 | 0.774 | 0.544 | 0.705 | 1.06 | 1.06 | 0.948 | 0.865 | 0.857 | 0.798 | 0.716 | 0.68 | 0.855 | 0.924 | 0.932 | 0.951
